The results in this text go back to US20100048727A1, “PERFLUOROKETONE COMPOUNDS AND USES THEREOF” (priority 2007, published 2010).

One test has as its target T1, human GIVA cPLA2 (Homo sapiens, UniProt P47712).
T1 sequence (P47712 1-749): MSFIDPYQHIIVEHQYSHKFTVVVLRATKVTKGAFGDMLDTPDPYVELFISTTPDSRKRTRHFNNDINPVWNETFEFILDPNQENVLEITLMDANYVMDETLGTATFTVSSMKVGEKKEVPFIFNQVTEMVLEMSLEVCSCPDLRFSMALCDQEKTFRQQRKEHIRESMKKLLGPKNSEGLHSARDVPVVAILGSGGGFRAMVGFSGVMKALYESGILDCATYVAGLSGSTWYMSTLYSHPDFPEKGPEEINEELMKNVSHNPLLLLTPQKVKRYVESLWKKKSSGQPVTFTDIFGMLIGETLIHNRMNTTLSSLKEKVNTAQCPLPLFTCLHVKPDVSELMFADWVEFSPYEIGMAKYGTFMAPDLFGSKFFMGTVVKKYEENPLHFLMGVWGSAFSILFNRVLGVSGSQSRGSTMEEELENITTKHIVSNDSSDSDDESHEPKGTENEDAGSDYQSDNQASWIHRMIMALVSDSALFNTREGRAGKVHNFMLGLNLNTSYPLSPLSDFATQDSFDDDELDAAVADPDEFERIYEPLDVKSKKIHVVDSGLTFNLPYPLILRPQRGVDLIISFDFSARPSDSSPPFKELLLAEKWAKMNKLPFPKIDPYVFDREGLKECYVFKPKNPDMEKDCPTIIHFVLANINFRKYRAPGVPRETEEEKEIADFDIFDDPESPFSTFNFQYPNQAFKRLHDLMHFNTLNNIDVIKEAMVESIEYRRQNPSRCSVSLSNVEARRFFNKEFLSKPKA
Kind of test: GIVA cPLA2 specific mixed micelle assay. The following applies: 0.091 mole fraction. It is filed as biochemical. How it is done: (§1) Inhibition of phospholipase A2 by perfluoroketone compounds. […] (2002) J. Med. Chem. 45: 2891-2893; Kokotos, G. et al. (2004). J. Med. Chem. 47: 3615-3628). The standard GVIA iPLA2 activity assay utilizes DPPC/Triton™ X-100 mixed micelles at a ratio of 1:4 as previously described (Stephens D. et al. (2006). J. Med. Chem., 49: 2821-2828). GV sPLA2 activity was measured in an assay similar to the assays for GIVA cPLA2 and GVIA iPLA2.

In another test the target is T2, GVIA iPLA2 (Homo sapiens, UniProt O60733).
T2 sequence (O60733 1-806): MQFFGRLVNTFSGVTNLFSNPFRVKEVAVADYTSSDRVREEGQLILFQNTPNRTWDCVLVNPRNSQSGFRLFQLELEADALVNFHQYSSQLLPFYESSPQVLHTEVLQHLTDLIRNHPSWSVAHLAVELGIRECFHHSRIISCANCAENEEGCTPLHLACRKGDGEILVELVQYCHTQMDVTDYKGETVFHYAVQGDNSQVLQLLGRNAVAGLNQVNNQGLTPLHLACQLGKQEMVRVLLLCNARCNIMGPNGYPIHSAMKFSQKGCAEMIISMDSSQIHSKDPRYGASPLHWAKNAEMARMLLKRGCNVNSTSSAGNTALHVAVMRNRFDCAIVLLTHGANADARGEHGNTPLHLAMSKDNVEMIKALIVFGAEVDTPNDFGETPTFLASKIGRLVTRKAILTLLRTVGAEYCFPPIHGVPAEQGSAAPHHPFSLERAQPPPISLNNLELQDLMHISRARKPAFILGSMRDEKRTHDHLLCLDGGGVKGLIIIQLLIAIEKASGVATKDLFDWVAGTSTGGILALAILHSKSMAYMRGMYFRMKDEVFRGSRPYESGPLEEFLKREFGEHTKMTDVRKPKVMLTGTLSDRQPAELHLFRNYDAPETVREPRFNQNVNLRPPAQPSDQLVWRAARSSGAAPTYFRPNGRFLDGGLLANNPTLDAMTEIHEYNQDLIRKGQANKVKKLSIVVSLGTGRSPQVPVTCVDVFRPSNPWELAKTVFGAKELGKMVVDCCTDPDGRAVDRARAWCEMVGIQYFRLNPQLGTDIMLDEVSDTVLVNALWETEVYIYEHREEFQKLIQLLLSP
The test is described as follows: standard GVIA iPLA2 activity assay (DPPC/Triton X-100 mixed micelles). Type of test: biochemical. The following applies: 0.091 mole fraction; mean and standard error, n = 3. How it is done: as §1

A further test deals with EAE-induced SJL/J mice. The test is described as follows: Clinical course of EAE in SJL/J mice treated with fluoroketone compounds. Type of test: in vivo.
The subject of test [1] is inflammatory cytokines and chemokines in spinal cord. The test is described as follows: Mouse Inflammation antibody array on spinal cords of EAE mice. It is filed as in vivo. The following applies: peak stage (day 18). As to the method: Mouse Inflammation antibody array. Spinal cords were removed from vehicle- and FKGK11-treated animals at the peak stage of disease, and were then homogenized and centrifuged at 1000×g. The proteins were extracted and analyzed using the RayBio® Mouse Inflammation Antibody Array 1.1 (Cat. #0106008/AAM-INF-1; RayBiotech Inc.; Norcross, Ga.), which simultaneously detects 40 cytokines and other related proteins. Densitometry analysis was performed to detect differences between the various inflammatory mediators.
To further examine the effects of iPLA2 inhibitor treatment, the expression of 40 inflammatory cytokines and chemokines was assessed using the RayBio® Mouse Inflammation Antibody Array 1.1 (RayBiotech Inc., Norcross, Ga, Cat. #0106008/AAM-INF-1). The analysis was carried out on spinal cords taken from the peak stage of clinical disability (day 18), from mice treated with either a vehicle control, or the iPLA2-specific inhibitor FKGK11.

As to `O=C(CCCCc1ccccc1)C(F)(F)C(F)(F)F` [FKGK11, 1,1,1,2,2-Pentafluoro-7-phenyl-3-heptanone], the “Average percent inhibition GIVA cPLA2 (class symbol)” value at human GIVA cPLA2 is listed as “N.D. (N.D. means compounds with less than 25% inhibition (or no detectable inhibition))”. Also, the “Average percent inhibition GVIA iPLA2” value at GVIA iPLA2 was 98 ± 16%. For the same compound, the “clinical disability score between days 22-27” value in the test with EAE-induced SJL/J mice (delayed treatment from day 11, 5-point scale) was determined as 0.8. In addition, the “maximal clinical disability score” value in the test with EAE-induced SJL/J mice (delayed treatment from day 11, on day 17, 5-point scale) came out at 1.4. In the test with EAE-induced SJL/J mice (delayed treatment from day 11, on day 30, 5-point scale), the “clinical disability score at second peak” value was found to be 1.2. In addition, the “severity and progression of the disease (EAE)” value with EAE-induced SJL/J mice (delayed treatment from day 11 after immunization, 2 weeks, i.p., vs vehicle) is on record as “marked reduction”. In addition, in the test with EAE-induced SJL/J mice (treatment before onset of symptoms, daily for 3 weeks from day 6, course until day 40, 5-point scale), the “maximum clinical disability score” value turned out to be 1.0 grade. Also, the “clinical severity and progression of EAE” value in the test with EAE-induced SJL/J mice (treatment before onset of symptoms, daily for 3 weeks from day 6, vs vehicle) is “marked reduction”. Also, the IL-10 expression result in test [1] is given as “increase”. Further, the “number of chemokine proteins with marked reduction” value in test [1] (of 15 chemokines increased in vehicle-treated control) worked out at 11. For the same compound, the “number of pro-inflammatory cytokines with reduced expression” value in test [1] (of 17 cytokines increased in vehicle-treated control) amounted to 13.
